Test results reported in US9133167B2, “Antibacterial quinoline derivatives” (JANSSEN PHARMACEUTICA NV, priority 2012, dated 2015).
Values after ≈ are worked out from the molar mass of the structure shown. Values joined by “and” are separate entries in the source; they are usually repeats but may differ in a detail not shown here. Equal entries are not always repeated.

What was measured:
[1] = test system: Mycobacterium smegmatis (ATCC607); test: In-vitro anti-bacterial activity against strain M. smegmatis ATCC607 (Alamar Blue growth inhibition); assay type: cell-based; conditions: Mycolicibacterium smegmatis, 90% inhibitory concentration for bacterial growth, 48 hours at 37° C., read-out: IC90 (μg/ml) MSM 607
Method: D.1. In-Vitro Method for Testing Compounds for Anti-Bacterial Activity Against Strain M. Smegmatis ATCC607.
Flat-bottom, sterile 96-well plastic microtiter plates were filled with 180 μl of sterile deionized water, supplemented with 0.25% BSA. Subsequently, stock solutions (7.8× final test concentration) of compounds were added in 45 μl volumes to a series of duplicate wells in column 2 so as to allow evaluation of their effects on bacterial growth. Serial five-fold dilutions (45 μl in 180 μl) were made directly in the microtiter plates from column 2 to 11 using a customised robot system (Zymark Corp., Hopkinton, Mass.). Pipette tips were changed after every 3 dilutions to minimize pipetting errors with high hydrophobic compounds. Untreated control samples with (column 1) and without (column 12) inoculum were included in each microtiter plate. Approximately 250 CFU per well of bacteria inoculum, in a volume of 100 in 2.8× Mueller-Hinton broth medium, was added to the rows A to H, except column 12. The same volume of broth medium without inoculum was added to column 12 in row A to H. The cultures were incubated at 37° C. for 48 hours in a humidified 5% CO2 atmosphere (incubator with open air valve and continuous ventilation). At the end of incubation, two days after inoculation, the bacterial growth was quantitated fluorometrically. Therefore Alamar Blue (10×) was added to all wells in a volume of 20 and plates were incubated for another 2 hours at […]
The fluorescence was read in a computer-controlled fluorometer (Cytofluor, Biosearch) at an excitation wavelength of 530 nm and an emission wavelength of 590 nm (gain 30). The percentage growth inhibition achieved by the compounds was calculated according to standard methods and expressed as IC90 […] which defines the 90% inhibitory concentration for bacterial growth.

[2] = test system: Staphylococcus aureus (ATCC29213); test: Microtitre plate assay, IC90 for bacterial growth, Staphylococcus aureus strain; assay type: cell-based; conditions: 90% inhibitory concentration for bacterial growth, 24 hours at 37° C., read-out: IC90 (μg/ml) STA B29213
Method: D.2. In-Vitro Method for Testing Compounds for Anti-Bacterial Activity Against a Non-Mycobacterial Strain
Preparation of Bacterial Suspensions for Susceptibility Testing:
The bacteria used in this study were grown overnight in flasks containing 100 ml Mueller-Hinton Broth (Becton Dickinson—cat. no. 275730) in sterile de-ionized water, with shaking, at 37° C. Stocks (0.5 ml/tube) were stored at −70° C. until use. Bacteria titrations were performed in microtiter plates to detect the TCID50, in which TCID50 represents the dilution that gives rise to bacterial growth in 50% of inoculated cultures. In general, an inoculum level of approximately 100 TCID50 was used for susceptibility testing.
Anti Bacterial Susceptibility Testing: IC90 Determination
Flat-bottom, sterile 96-well plastic microtiter plates were filled with 180 μl of sterile deionized water, supplemented with 0.25% BSA. Subsequently, stock solutions (7.8× final test concentration) of compounds were added in 45 μl volumes in column 2 Serial five-fold dilutions (45 μl in 180 μl) were made directly in the microtiter plates from column 2 to reach column 11. Untreated control samples with (column 1) and without (column 12) inoculum were included in each microtiter plate. Depending on the bacteria type, approximately 10 to 60 CFU per well of bacteria inoculum (100 TCID50), in a volume of 100 μl in 2.8× Mueller-Hinton broth medium, was added to the rows A to H, except column 12. The same volume of broth medium without inoculum was added to column 12 in row A to H. The cultures were incubated at 37° C. for 24 hours under a normal atmosphere (incubator with open air valve and continuous ventilation). At the end of incubation, one day after inoculation, the bacterial growth was quantitated fluorometrically. Therefore resazurin (0.6 mg/ml) was added in a volume of 20 μl to all wells 3 hours after inoculation, and the plates were re-incubated overnight. A change in colour from blue to pink indicated the growth of bacteria. The fluorescence was read in a computer-controlled fluorometer (Cytofluor Biosearch) at an excitation wavelength of 530 nm and an emission wavelength of 590 nm. The % growth inhibition achieved by the compounds was calculated according to standard methods. The IC90 (expressed in μg/ml) was defined as the 90% inhibitory concentration for bacterial growth. The results are shown in Table 7 for an assay using a Staphylococcus aureus strain.

Compound	melting point	IC90 [1]	IC90 [2]
CCn1c(=O)c(C(c2ccc(Cl)cc2)C2(O)CCN(Cc3ccccc3)CC2)cc2cc(Br)ccc21 (centres unmarked) [Compound 2]	212 °C	3.57 µg/mL (≈ 6.31 µM)	11.3 µg/mL (≈ 19.9 µM)
CCn1c(=O)c(C(c2ccc(Cl)cc2)C2(O)CCN(Cc3ccccc3)CC2)cc2cc(-c3cccnc3)ccc21 (centres unmarked) [Compound 3]	172 °C	3.56 µg/mL (≈ 6.31 µM)	7.1 µg/mL (≈ 12.6 µM)
COc1nc2ccc(Br)cc2cc1C(c1ccc(SC)cc1)C1(O)CCNCC1 (centres unmarked) [Compound 9]	204 °C	4.78 µg/mL (≈ 10.1 µM)	7.58 µg/mL (≈ 16 µM)
COc1nc2ccc(Br)cc2cc1C(c1ccc(Cl)cc1)C1(O)CCN(C)CC1 (centres unmarked) [Compound 16]	193 °C	2.39 µg/mL (≈ 5.02 µM)	5.99 µg/mL (≈ 12.6 µM)
COc1nc2ccc(Br)cc2cc1C(c1ccc(Cl)cc1)C1(O)CCN(Cc2cccc(F)c2)CC1 (centres unmarked) [Compound 17]	220 °C	14.3 µg/mL (≈ 25.1 µM)	14.3 µg/mL (≈ 25.1 µM)
COc1nc2ccc(CO)cc2cc1C(c1ccc(Cl)cc1)C1(O)CCN(Cc2ccccc2)CC1 (centres unmarked) [Compound 22]	196 °C	16.3 µg/mL (≈ 32.4 µM)	> 16.3 µg/mL
COc1nc2ccc(C(=O)Nc3cccnc3)cc2cc1C(c1ccc(Cl)cc1)C1(O)CCN(Cc2ccccc2)CC1 (centres unmarked) [Compound 24]	146 °C	7.47 µg/mL (≈ 12.6 µM)	8.38 µg/mL (≈ 14.1 µM)
COc1nc2ccc(Br)cc2cc1C(c1ccc(Cl)cc1)C1(O)CCN(C(=N)N)CC1 (centres unmarked) [Compound 25]	> 250 °C	6.34 µg/mL (≈ 12.6 µM)	1.59 µg/mL (≈ 3.16 µM)
O=c1[nH]c2ccc(-c3cccnc3)cc2cc1C(c1ccc(Cl)cc1)C1(O)CCNCC1 (centres unmarked) [Compound 26]	> 250 °C and 250 °C	3.09 µg/mL (≈ 6.93 µM)	> 30.9 µg/mL
O=c1[nH]c2ccc(Br)cc2cc1C(c1ccc2ccccc2c1)C1(O)CCN(Cc2ccccc2)CC1 (centres unmarked) [Compound 80]	249 °C	–	4.4 µg/mL (≈ 7.95 µM)
